{"source": "paper PMC6455008", "about": "“Methylation at the C-3′ in D-Ring of Strigolactone Analogs Reduces Biological Activity in Root Parasitic Plants and Rice” (Frontiers in Plant Science, 2019)", "key": {"Striga seeds [1]": {"system": "Striga seeds", "assay": "Stability of formulated SL analogs in aqueous solution under storage (Striga germination readout)", "type": "physicochemical, Striga hermonthica", "conditions": "1.0 μM", "protocol": "(§1) The stability of formulated SL analogs was further tested in sand culture. About 1.5 ml of silver sand was added in each of 6 wells of 24-well plates. Then, 800 μl of formulated SL analogs (1.0 μM) was added in each of the six wells. The plates were sealed firmly with para-film, wrapped in aluminum foil, and placed at 30°C from day 1 to day 7. After 7 days, glass fiber discs containing preconditioned Striga seeds were placed on the top of each of the six wells and incubated in the dark at 30°C for 24 h. The germinated and non-germinated seeds were counted from each disc. In addition, the viability of formulated SL analogs was also tested in aqueous solution for 7 weeks at 30°C. About 800-μl aqueous solution of formulated SL analogs (1.0 μM) was added in a black Eppendorf tube weekly up to 6 weeks and incubated at 30°C. On the seventh week, about 50 μl of each analog was applied on a glass fiber disc containing preconditioned Striga seed and put again in the dark in sealed petri plates at 30°C for 24 h. Germinated and non-germinated seeds were counted from each disc."}, "Arabidopsis seedlings [2]": {"system": "Arabidopsis seedlings", "assay": "Arabidopsis hypocotyl elongation assay", "type": "in vivo", "conditions": "Arabidopsis thaliana, compared to control seedlings, read-out: inhibition of hypocotyl growth (reduction in hypocotyl length)", "protocol": "(§2) The sterilized Arabidopsis seeds were grown in petri plates that were first kept at 4°C in darkness for 3 days. For hypocotyl study, the petri plates were exposed to continuous white light for 24 h, then transferred to continuous monochromatic red light (20 μmol m^−2 s^−1, 22°C) conditions for another 4 days. For lateral root density, the plates were vertically grown at 22°C in Percival incubator under long day conditions (16 h at 22°C/8 h at 16°C day/night, 60% relative humidity, 60–70 μmol m^−2 s^−1 white light) for 8 days. After scanning, the hypocotyl length and number of lateral roots were recorded using publicly available ImageJ software.^1"}, "P. aegyptiaca seeds": {"system": "P. aegyptiaca seeds", "assay": "Parasitic seed germination bioassay, Phelipanche", "type": "in vivo, Phelipanche aegyptiaca", "method": "(§4) Germination activity of SL analogs on S. hermonthica and P. aegyptiaca seeds was tested by following the procedure described before ([Jamil et al., 2012]). The preconditioned Striga and Phelipanche seeds were treated with 50 μl of each SL analog solution at a concentration range (10^−5–10^−12 M). GR24 and sterile MilliQ water were included as positive and negative controls, respectively. The treated seeds were allowed to germinate in the dark for 24 h at 30°C (for Striga) and for 1 week at 25°C (for Phelipanche). The germinated and non-germinated seeds were counted under a binocular microscope, and germination rate (in %) was calculated.\n(§5) Collected data were analyzed statistically using statistical software package R (version 3.2.2)."}, "Arabidopsis seedlings [3]": {"system": "Arabidopsis seedlings", "assay": "Arabidopsis lateral root density assay", "type": "in vivo", "conditions": "Arabidopsis thaliana, compared to control seedlings", "protocol": "as §2"}, "OsD14": {"target": "T1, OsD14 (Oryza sativa subsp. japonica, UniProt Q10QA5)", "T1 construct": "made in house", "T1 sequence (Q10QA5 1-318)": "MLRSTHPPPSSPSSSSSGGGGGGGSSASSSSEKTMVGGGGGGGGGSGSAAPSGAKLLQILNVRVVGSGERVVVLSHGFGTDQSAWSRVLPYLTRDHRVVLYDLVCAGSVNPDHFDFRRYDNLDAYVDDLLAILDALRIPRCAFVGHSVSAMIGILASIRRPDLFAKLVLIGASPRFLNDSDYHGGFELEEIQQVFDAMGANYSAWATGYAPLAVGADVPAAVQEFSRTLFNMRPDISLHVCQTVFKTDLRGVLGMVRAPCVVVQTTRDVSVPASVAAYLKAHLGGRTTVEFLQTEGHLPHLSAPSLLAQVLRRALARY", "assay": "In vitro YLG hydrolysis competition assay, OsD14", "type": "biochemical", "protocol": "(§3) Protein expression and purification of ShHTL7 and Oryza sativa D14 (OsD14) was carried out according to the procedure described earlier ([Jamil et al., 2018]). In vitro Yoshimulactone Green (YLG) hydrolysis assays ([Tsuchiya et al., 2015]) were carried out using 3.0 μM of protein ShHTL7 and OsD14 in a reaction buffer (1X PBS buffer, pH 7.3) with 0.1% DMSO at a 100-μl volume on a 96-well black plate (Greiner). For competitive assays, rac-GR24, AR8, MP13, and MP26 (at range between 0.01 and 50 μM) were co-incubated with 1.0 μM of YLG (Tokyo Chemical Industry Co. Ltd., product number E1238) for 60 min at room temperature. Fluorescent intensity was measured by spectraMax i5 (Molecular Devices) at excitation by 480 nm and detection by 520 nm. The change in fluorescence observed over the course of 1 h of YLG in buffer without protein was subtracted from the data collected in presence of protein. IC50 values were calculated by GraphPad (Prism 7)."}, "Striga seeds [4]": {"system": "Striga seeds", "assay": "Stability of formulated SL analogs in sand (Striga germination readout)", "type": "physicochemical, Striga hermonthica", "conditions": "1.0 μM, sand, 30°C, 7 days", "protocol": "as §1"}, "ShHTL7": {"target": "T2, ShHTL7 (Striga hermonthica, UniProt A0A0M3PNA2)", "T2 sequence (A0A0M3PNA2 1-271)": "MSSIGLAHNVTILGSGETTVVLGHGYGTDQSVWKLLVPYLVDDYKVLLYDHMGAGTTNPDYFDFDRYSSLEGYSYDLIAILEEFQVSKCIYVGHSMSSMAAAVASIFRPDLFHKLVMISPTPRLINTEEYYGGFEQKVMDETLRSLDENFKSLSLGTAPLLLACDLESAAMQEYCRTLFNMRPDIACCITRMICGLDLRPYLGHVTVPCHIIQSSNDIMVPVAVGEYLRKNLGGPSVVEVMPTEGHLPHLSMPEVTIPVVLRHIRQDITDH", "assay": "In vitro YLG hydrolysis competition assay, ShHTL7", "type": "biochemical", "protocol": "as §3"}, "Striga hermonthica": {"system": "Striga hermonthica", "assay": "Striga emergence in pots under greenhouse conditions (suicidal germination, rice host)", "type": "in vivo", "conditions": "formulated 1.0 μM", "protocol": "About 10 mg of (ca 4,000) Striga seeds were thoroughly mixed in 2 L of sand and soil mixture (1:1) and added in 3-L perforated plastic pot containing 0.5 L of clean soil in the bottom. Striga seeds were first preconditioned by giving light irrigation and putting pots at 35°C in greenhouse for 10 days. Each pot was sprayed with 20-ml (1.0 μM) formulated SL analogs up to 10 days at 2-day intervals. A light irrigation was given next day of each application to move the compound to Striga seeds and they were allowed to germinate for suicidal death without host for another 1 week. Then, three rice seedlings (5 days old) were planted in the middle of each pot. The rice plants were grown under normal growth condition (30°C, 70% RH) for 8 weeks. Number of emerged Striga plants in each pot were counted."}, "S. hermonthica seeds": {"system": "S. hermonthica seeds", "assay": "Parasitic seed germination bioassay, Striga", "type": "in vivo, Striga hermonthica", "conditions": "for EC50: Striga hermonthica", "method": "as §4, §5"}, "rice d10 mutant": {"system": "rice d10 mutant", "assay": "Rice micro tillering bioassay (d10 mutant, hydroponic)", "type": "in vivo", "protocol": "Rice seeds (d10) were sterilized with 2.5% sodium hypochlorite for 15 min. After thorough washing with sterile MilliQ water, the seeds were kept in water for 2 days at 30°C in the dark for imbibition and pre-germination. The pre-germinated seeds were then transferred to moist filter paper in 90-mm petri plates and incubated at 30°C overnight. The plates with germinated seeds were then shifted in a growth cabinet with fluorescent white light (130–180 μM m^−2 s^−1) for 1 week. Seven days-old seedlings were moved to 50-ml falcon tubes (one seedling per tube) containing modified half-strength Hoagland nutrient solution in greenhouse. After 1 week, rice plants were treated with 2.5 μM of each SL analog. Mock and GR24 (2.5 μM) were included as control treatments. Six applications of each SL analog were done two times in a week. After 3 weeks of application, number of tillers per plant, plant height, and fresh biomass were measured at final harvest."}}, "note": "Where two headings read alike, the source gives them in different places."}
{"smiles": "CC1=C[C@H](O/C=C2/C(=O)O[C@@H]3c4ccccc4C[C@H]23)OC1=O", "note": "[GR24, reference compound]", "values": [{"measurement": "Striga germination rate maintained for 5 weeks of storage", "setting": "Striga seeds [1]; 30°C, 5 weeks", "value": "around 38%"}, {"measurement": "Striga germination rate after 6 weeks of storage", "setting": "Striga seeds [1]; 30°C, 6 weeks", "value": 11, "unit": "%"}, {"measurement": "Striga germination rate before storage", "setting": "Striga seeds [1]; before storage", "value": 76, "unit": "%"}, {"measurement": "inhibition at 1 µM", "setting": "Arabidopsis seedlings [2]", "value": 37, "unit": "%"}, {"measurement": "EC50", "setting": "P. aegyptiaca seeds; Phelipanche aegyptiaca, read-out: EC50 P. aegyptiaca seed germination, formulated", "value": 9.3, "unit": "nM"}, {"measurement": "P. aegyptiaca germination rate", "setting": "P. aegyptiaca seeds; non-formulated, 1.0 μM, 1 week at 25°C", "value": 75, "unit": "%"}, {"measurement": "inhibition at 1 µM", "setting": "Arabidopsis seedlings [3]", "value": 53, "unit": "%"}, {"measurement": "IC50", "setting": "OsD14", "value": "1240 ± 90", "unit": "nM"}, {"measurement": "Striga germination rate on seventh day of incubation in sand", "setting": "Striga seeds [4]", "value": "around 20%"}, {"measurement": "IC50", "setting": "ShHTL7", "value": "1640 ± 520", "unit": "nM"}, {"measurement": "decrease in Striga emergence compared to mock at 10 WAS", "setting": "Striga hermonthica; 10 weeks after sowing", "value": 82, "unit": "%"}, {"measurement": "Striga hermonthica emergence, 5 WAS", "setting": "Striga hermonthica; mean ± SE, n=5, 5 weeks after sowing", "value": "0.0±0.0"}, {"measurement": "Striga hermonthica emergence, 6 WAS", "setting": "Striga hermonthica; mean ± SE, n=5, 6 weeks after sowing", "value": "0.0±0.0"}, {"measurement": "Striga hermonthica emergence, 7 WAS", "setting": "Striga hermonthica; mean ± SE, n=5, 7 weeks after sowing", "value": "1.0±0.6"}, {"measurement": "Striga hermonthica emergence, 8 WAS", "setting": "Striga hermonthica; mean ± SE, n=5, 8 weeks after sowing", "value": "1.6±0.5"}, {"measurement": "Striga hermonthica emergence, 9 WAS", "setting": "Striga hermonthica; mean ± SE, n=5, 9 weeks after sowing", "value": "1.6±0.5"}, {"measurement": "Striga hermonthica emergence, 10 WAS", "setting": "Striga hermonthica; mean ± SE, n=5, 10 weeks after sowing", "value": "2.4±0.8"}, {"measurement": "percent decrease in Striga hermonthica emergence over mock, 8 WAS", "setting": "Striga hermonthica; negative = decrease, 8 WAS", "value": -85, "unit": "%"}, {"measurement": "percent decrease in Striga hermonthica emergence over mock, 9 WAS", "setting": "Striga hermonthica; negative = decrease, 9 WAS", "value": -84, "unit": "%"}, {"measurement": "percent decrease in Striga hermonthica emergence over mock, 10 WAS", "setting": "Striga hermonthica; negative = decrease, 10 WAS", "value": -82, "unit": "%"}, {"measurement": "Striga germination rate", "setting": "S. hermonthica seeds; 1.0 μM, formulated and non-formulated, 24 h at 30°C", "value": 75, "unit": "%"}, {"measurement": "EC50", "setting": "S. hermonthica seeds; read-out: EC50 Striga seed germination, formulated", "value": 0.44, "unit": "nM"}, {"measurement": "EC50", "setting": "S. hermonthica seeds; read-out: EC50 Striga seed germination, non-formulated", "value": 1.9, "unit": "nM"}, {"measurement": "inhibition at 2.5 µM", "setting": "rice d10 mutant; Oryza sativa, read-out: tillering inhibition", "value": 76, "unit": "%"}, {"measurement": "number of tillers per plant", "setting": "rice d10 mutant; SL-deficient d10 mutant, hydroponic, 2.5 μM, twice a week up to 3 weeks, untreated d10 six tillers", "value": 1.4, "unit": "tillers per plant"}, {"measurement": "plant height compared to mock", "setting": "rice d10 mutant; d10 mutant, 2.5 μM", "value": "significant increase in plant height"}]}
